According to US20110312941A1, “1,4-DISUBSTITUTED PIPERIDINES AS VASOPRESSIN RECEPTOR VIA ANTAGONISTS” (VANTIA LIMITED, priority 2009, published 2011):

Biological target: T1, cloned human V1a receptor (Homo sapiens, UniProt P37288)
T1 construct: host or cells: human brain astrocytoma 1321N1 cells
Assay: in vitro functional calcium mobilisation assay (FLIPR), antagonist activity, 1321N1 cells, 250 pM AVP
Assay type: cell-based
Details: functional pKi derived from pIC50 (Equation 1), FLIPR Ca2+ mobilisation, 1321N1 cells expressing cloned human V1a receptor, read-out: Mean fpKi (Human V1a) (converted)
Method: The primary assay which may be used to determine the ability of the compounds of formula (1) to inhibit the vasopressin V1a receptor is an in vitro functional calcium mobilisation assay (FLIPR) that measures antagonist activity at a cloned human V1a receptor. The assay is described below.
The antagonist activity of compounds of formula (1) were determined in a Calcium (Ca2+) mobilisation assay using whole cells (human brain astrocytoma 1321N1 cells, ex Perkin Elmer) genetically modified to stably express a cloned human V1a receptor. Dose response curves were determined by displacement of a single concentration of agonist (250 pM AVP, ex Sigma) with increasing concentrations of compound. A pIC50 value is determined by non-linear regression to a 4-parameter logistic equation and a functional pKi (fpKi) derived using Equation 1.
where A=agonist single conc, and A50=the agonist EC50.

T1 sequence (P37288 whole entry): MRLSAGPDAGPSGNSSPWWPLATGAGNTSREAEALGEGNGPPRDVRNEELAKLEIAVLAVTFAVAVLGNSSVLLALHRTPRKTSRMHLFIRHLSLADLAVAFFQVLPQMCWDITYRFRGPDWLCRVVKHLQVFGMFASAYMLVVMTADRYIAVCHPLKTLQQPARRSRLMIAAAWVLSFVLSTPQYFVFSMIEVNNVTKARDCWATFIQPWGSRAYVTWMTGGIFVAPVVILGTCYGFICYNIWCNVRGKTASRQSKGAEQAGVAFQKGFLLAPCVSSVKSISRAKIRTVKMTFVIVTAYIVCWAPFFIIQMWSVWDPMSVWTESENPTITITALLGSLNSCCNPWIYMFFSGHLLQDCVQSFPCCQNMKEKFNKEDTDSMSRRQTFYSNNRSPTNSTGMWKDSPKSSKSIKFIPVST

Row | Ki [nM] | Structure (SMILES)
1 | 0.977 | Cc1ccc(N2CCC(C(=O)N3CCc4nc(N5CCOCC5)[nH]c4-c4cc(C)ccc43)CC2)nc1 [Example 1, (9-Methyl-2-morpholin-4-yl-4,5-dihydro-1H-1,3,6-triaza-benzo[e]azulen-6-yl)-(5′-methyl-3,4,5,6-tetrahydro-2H-[1,2′]bipyridinyl-4-yl)-methanone]
2 | 1.45 | Cc1ccc2c(c1)-c1[nH]c(N3CCOCC3)nc1CCN2C(=O)C1CCN(c2ncccc2C)CC1 [Example 2, (9-Methyl-2-morpholin-4-yl-4,5-dihydro-1H-1,3,6-triaza-benzo[e]azulen-6-yl)-(3′-methyl-3,4,5,6-tetrahydro-2H-[1,2′]bipyridinyl-4-yl)-methanone]
3 | 0.977 | COc1cccnc1N1CCC(C(=O)N2CCc3nc(N4CCOCC4)[nH]c3-c3cc(C)ccc32)CC1 [Example 3, (3′-Methoxy-3,4,5,6-tetrahydro-2H-[1,2′]bipyridinyl-4-yl)-(9-methyl-2-morpholin-4-yl-4,5-dihydro-1H-1,3,6-triaza-benzo[e]azulen-6-yl)-methanone]
4 | 1.48 | Cc1ccc2c(c1)-c1[nH]c(N3CCOCC3)nc1CCN2C(=O)C1CCN(c2ccc(C)nc2)CC1 [Example 4, (9-Methyl-2-morpholin-4-yl-4,5-dihydro-1H-1,3,6-triaza-benzo[e]azulen-6-yl)-(6′-methyl-3,4,5,6-tetrahydro-2H-[1,3′]bipyridinyl-4-yl)-methanone]
5 | 1.78 | Cc1cccc(N2CCC(C(=O)N3CCc4nc(N5CCOCC5)[nH]c4-c4cc(F)ccc43)CC2)n1 [Example 5, (9-Fluoro-2-morpholin-4-yl-4,5-dihydro-1H-1,3,6-triaza-benzo[e]azulen-6-yl)-(6′-methyl-3,4,5,6-tetrahydro-2H-[1,2′]bipyridinyl-4-yl)-methanone]
6 | 912 | Cc1nc2c([nH]1)-c1ccccc1N(C(=O)C1CCN(c3ncccn3)CC1)CC2 [Example 6]
7 | 49 | Cc1nc2c([nH]1)-c1cc(Cl)ccc1N(C(=O)C1CCN(c3ncccn3)CC1)CC2 [Example 7]
8 | 151 | Cc1nc2c([nH]1)-c1ccccc1N(C(=O)C1CCN(c3ccccn3)CC1)CC2 [Example 8]
9 | 18.2 | O=C(C1CCN(c2ccccn2)CC1)N1CCc2nc(N3CCOCC3)[nH]c2-c2ccccc21 [Example 9]
10 | 5.01 | Cc1cccnc1N1CCC(C(=O)N2CCc3nc(N4CCOCC4)[nH]c3-c3ccccc32)CC1 [Example 10]
11 | 3.72 | Cc1ccnc(N2CCC(C(=O)N3CCc4nc(N5CCOCC5)[nH]c4-c4ccccc43)CC2)c1 [Example 11]
12 | 2.14 | Cc1ccc(N2CCC(C(=O)N3CCc4nc(N5CCOCC5)[nH]c4-c4ccccc43)CC2)nc1 [Example 12]
13 | 7.94 | O=C(C1CCN(c2ccccn2)CC1)N1CCc2nc(N3CCOCC3)[nH]c2-c2cc(F)ccc21 [Example 13]
14 | 2.51 | Cc1cccnc1N1CCC(C(=O)N2CCc3nc(N4CCOCC4)[nH]c3-c3cc(F)ccc32)CC1 [Example 14]
15 | 1.95 | Cc1ccnc(N2CCC(C(=O)N3CCc4nc(N5CCOCC5)[nH]c4-c4cc(F)ccc43)CC2)c1 [Example 15]
16 | 2.95 | Cc1ccc(N2CCC(C(=O)N3CCc4nc(N5CCOCC5)[nH]c4-c4cc(F)ccc43)CC2)nc1 [Example 16]
17 | 5.01 | CCc1nc2c([nH]1)-c1cc(C)ccc1N(C(=O)C1CCN(c3ncccc3C)CC1)CC2 [Example 17]
18 | 2.29 | CCc1nc2c([nH]1)-c1cc(C)ccc1N(C(=O)C1CCN(c3cc(C)ccn3)CC1)CC2 [Example 18]
19 | 2.34 | CCc1nc2c([nH]1)-c1cc(C)ccc1N(C(=O)C1CCN(c3cc(C)ccn3)CC1)CC2 [Example 19]
20 | 12.3 | CCCc1nc2c([nH]1)-c1cc(C)ccc1N(C(=O)C1CCN(c3ccccn3)CC1)CC2 [Example 20]
21 | 4.47 | CCCc1nc2c([nH]1)-c1cc(C)ccc1N(C(=O)C1CCN(c3ncccc3C)CC1)CC2 [Example 21]

Row | Ki [nM] | Structure (SMILES)
22 | 2.04 | CCCc1nc2c([nH]1)-c1cc(C)ccc1N(C(=O)C1CCN(c3cc(C)ccn3)CC1)CC2 [Example 22]
23 | 2.14 | CCCc1nc2c([nH]1)-c1cc(C)ccc1N(C(=O)C1CCN(c3ccc(C)cn3)CC1)CC2 [Example 23]
24 | 8.71 | Cc1ccc2c(c1)-c1[nH]c(C3CC3)nc1CCN2C(=O)C1CCN(c2ccccn2)CC1 [Example 24]
25 | 1.51 | Cc1ccc(N2CCC(C(=O)N3CCc4nc(C5CC5)[nH]c4-c4cc(C)ccc43)CC2)nc1 [Example 25]
26 | 18.2 | CCCCc1nc2c([nH]1)CCN(C(=O)C1CCN(c3ccccn3)CC1)c1ccc(C)cc1-2 [Example 26]
27 | 4.47 | CCCCc1nc2c([nH]1)CCN(C(=O)C1CCN(c3ccc(C)cn3)CC1)c1ccc(C)cc1-2 [Example 27]
28 | 13.5 | Cc1ccc2c(c1)-c1nc(CC(C)C)[nH]c1CCN2C(=O)C1CCN(c2ccccn2)CC1 [Example 28]
29 | 2.69 | Cc1ccc(N2CCC(C(=O)N3CCc4[nH]c(CC(C)C)nc4-c4cc(C)ccc43)CC2)nc1 [Example 29]
30 | 1.78 | Cc1ccc(N2CCC(C(=O)N3CCc4nc(N5CCN(C)CC5)[nH]c4-c4cc(C)ccc43)CC2)nc1 [Example 30]
31 | 3.8 | Cc1ccc2c(c1)-c1[nH]c(N3CCOCC3)nc1CCN2C(=O)C1CCN(c2ccccn2)CC1 [Example 31]
32 | 1.58 | Cc1ccnc(N2CCC(C(=O)N3CCc4nc(N5CCOCC5)[nH]c4-c4cc(C)ccc43)CC2)c1 [Example 32]
33 | 0.977 | COc1ccnc(N2CCC(C(=O)N3CCc4nc(N5CCOCC5)[nH]c4-c4cc(C)ccc43)CC2)c1 [Example 33]
34 | 2.69 | COc1ccc(N2CCC(C(=O)N3CCc4nc(N5CCOCC5)[nH]c4-c4cc(C)ccc43)CC2)nc1 [Example 34]
35 | 7.08 | Cc1ccc2c(c1)-c1[nH]c(N3CCOCC3)nc1CCN2C(=O)C1CCN(c2ccc(C(F)(F)F)cn2)CC1 [Example 35]
36 | 97.7 | Cc1ccc2c(c1)-c1[nH]c(N3CCOCC3)nc1CCN2C(=O)C1CCN(c2ccc(C#N)cn2)CC1 [Example 36]
37 | 4.37 | Cc1ccc2c(c1)-c1[nH]c(C3CCOCC3)nc1CCN2C(=O)C1CCN(c2ncccc2C)CC1 [Example 37]
38 | 2.24 | Cc1ccnc(N2CCC(C(=O)N3CCc4nc(C5CCOCC5)[nH]c4-c4cc(C)ccc43)CC2)c1 [Example 38]
39 | 2 | Cc1ccc(N2CCC(C(=O)N3CCc4nc(C5CCOCC5)[nH]c4-c4cc(C)ccc43)CC2)nc1 [Example 39]
40 | 1.26 | COc1cccnc1N1CCC(C(=O)N2CCc3nc(C4CCOCC4)[nH]c3-c3cc(C)ccc32)CC1 [Example 40]
41 | 2.34 | COc1ccnc(N2CCC(C(=O)N3CCc4nc(C5CCOCC5)[nH]c4-c4cc(C)ccc43)CC2)c1 [Example 41]
42 | 5.62 | COc1ccc(N2CCC(C(=O)N3CCc4nc(C5CCOCC5)[nH]c4-c4cc(C)ccc43)CC2)nc1 [Example 42]

Row | Ki [nM] | Structure (SMILES)
43 | 7.59 | Cc1ccc(N2CCC(C(=O)N3CCc4nc(N5CCCC5)[nH]c4-c4cc(C)ccc43)CC2)nc1 [Example 43]
44 | 12.6 | Cc1nc2c([nH]1)-c1cc(Cl)ccc1N(C(=O)C1CCN(c3ccccn3)CC1)CC2 [Example 44]
45 | 6.31 | Cc1ccc(N2CCC(C(=O)N3CCc4nc(C)[nH]c4-c4cc(Cl)ccc43)CC2)nc1 [Example 45, (9-Chloro-2-methyl-4,5-dihydro-1H-1,3,6-triaza-benzo[e]azulen-6-yl)-(5′-methyl-3,4,5,6-tetrahydro-2H-[1,2′]bipyridinyl-4-yl)-methanone]
46 | 13.5 | CCc1nc2c([nH]1)-c1cc(Cl)ccc1N(C(=O)C1CCN(c3ccccn3)CC1)CC2 [Example 46]
47 | 11.7 | CCCc1nc2c([nH]1)-c1cc(Cl)ccc1N(C(=O)C1CCN(c3ccccn3)CC1)CC2 [Example 47]
48 | 10.2 | O=C(C1CCN(c2ccccn2)CC1)N1CCc2nc(C3CC3)[nH]c2-c2cc(Cl)ccc21 [Example 48]
49 | 23.4 | O=C(C1CCN(c2ccccn2)CC1)N1CCc2nc(C3CCCCC3)[nH]c2-c2cc(Cl)ccc21 [Example 49]
50 | 24.5 | O=C(C1CCN(c2ccccn2)CC1)N1CCc2nc(N3CCCCC3)[nH]c2-c2cc(Cl)ccc21 [Example 50]
51 | 17.4 | CN1CCN(c2nc3c([nH]2)-c2cc(Cl)ccc2N(C(=O)C2CCN(c4ccccn4)CC2)CC3)CC1 [Example 51]
52 | 1.1 | Cc1ccc(N2CCC(C(=O)N3CCc4nc(N5CCN(C)CC5)[nH]c4-c4cc(Cl)ccc43)CC2)nc1 [Example 52]
53 | 64.6 | O=C(C1CCN(c2ccccn2)CC1)N1CCc2nc(-c3ccccc3)[nH]c2-c2cc(Cl)ccc21 [Example 53]
54 | 75.9 | O=C(C1CCN(c2ccccn2)CC1)N1CCc2nc(-c3ccccc3F)[nH]c2-c2cc(Cl)ccc21 [Example 54]
55 | 97.7 | O=C(C1CCN(c2ccccn2)CC1)N1CCc2nc(-c3cccc(F)c3)[nH]c2-c2cc(Cl)ccc21 [Example 55]
56 | 79.4 | O=C(C1CCN(c2ccccn2)CC1)N1CCc2nc(Cc3ccccc3)[nH]c2-c2cc(Cl)ccc21 [Example 56]
57 | 2.51 | O=C(C1CCN(c2ccccn2)CC1)N1CCc2nc(N3CCOCC3)[nH]c2-c2cc(Cl)ccc21 [Example 57]
58 | 0.646 | Cc1ccnc(N2CCC(C(=O)N3CCc4nc(N5CCOCC5)[nH]c4-c4cc(Cl)ccc43)CC2)c1 [Example 58]
59 | 0.794 | Cc1ccc(N2CCC(C(=O)N3CCc4nc(N5CCOCC5)[nH]c4-c4cc(Cl)ccc43)CC2)nc1 [Example 59]
60 | 12.9 | Cc1cccc(N2CCC(C(=O)N3CCc4nc(N5CCOCC5)[nH]c4-c4ccccc43)CC2)n1 [Example 60]
61 | 7.41 | CCc1nc2c([nH]1)-c1cc(C)ccc1N(C(=O)C1CCN(c3cccc(C)n3)CC1)CC2 [Example 61]
